This is an account of results in patent US10517889B2, “Modulators of SMAD7 expression” (Ionis Pharmaceuticals, Inc., priority 2017, dated 2019).

In the data set the test system is human SMAD7 mRNA. Nature of the data set: Antisense inhibition of human SMAD7 mRNA expression in Hep3B cells by 5-10-5 MOE gapmers, single concentration, electroporation, RT-PCR (Example 1, Study 1 and 2). The format is cell-based. The following applies: for % Inhibition: Study 2, electroporation with 15,000 nM antisense oligonucleotide; for % Inhibition of SMAD7 mRNA: electroporation with 15,000 nM antisense oligonucleotide (Study 2). An outline of the steps: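 Readout is percent SMAD7 mRNA inhibition versus untreated cells, measured by qRT-PCR (RTS5062) and corrected for total RNA by RIBOGREEN. Oligonucleotide, 5,000 nM or 15,000 nM, was delivered by electroporation into Hep3B cells at 20,000 per well. RNA was collected about 24 h later.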

[1] abbreviates: 5-10-5 MOE gapmers targeting SEQ ID NO: 1 and 2.
Setting [2] is: electroporation, 15,000 nM antisense oligonucleotide (Study 2), 5-10-5 MOE gapmers targeting SEQ ID NO: 1 and 2.
Where [3] appears, read: electroporation, 5,000 nM, approximately 24 hours, relative to untreated control cells, gapmers targeting SEQ ID NO: 1 and 2.
Setting [4] is: electroporation, 15,000 nM, approximately 24 hours, relative to untreated control cells, gapmers targeting SEQ ID NO: 1 and 2.

Strand notation (5' to 3'): a small letter for the sugar, then the base; units joined by * are phosphorothioate-linked, units joined directly phosphodiester-linked; [ ] holds rarer units or linkages, { } end groups; capitals alone tell only the bases. e = 2'-O-(2-methoxyethyl) (MOE); [5mC] = 5-methylcytosine; d = 2'-deoxy (DNA)

With “771868 (antisense eG*eG*eA*eG*eG*d[5mC]*dA*dA*dA*dT*dT*d[5mC]*dA*dT*dA*eG*eA*e[5mC]*eA*eG) [compound 771868]”, the “% Inhibition” value under setting [1] was found to be 16%.
The same measure, in the same setting: the figure for “771870 (antisense eA*eG*eG*e[5mC]*eA*d[5mC]*dA*dA*dG*dT*d[5mC]*dA*dA*dG*dG*eA*eG*eG*e[5mC]*e[5mC]) [compound 771870]” is 15%; for “771871 (antisense e[5mC]*eT*e[5mC]*e[5mC]*e[5mC]*dT*d[5mC]*dT*dG*d[5mC]*d[5mC]*d[5mC]*d[5mC]*dA*dG*eG*eA*eT*eT*e[5mC]) [compound 771871]” it is 15%.
Turning to “771872 (antisense eT*e[5mC]*e[5mC]*e[5mC]*e[5mC]*d[5mC]*dA*d[5mC]*d[5mC]*dG*d[5mC]*dG*d[5mC]*dA*dG*eG*eG*eA*e[5mC]*eA) [compound 771872]”, under setting [1], the “% Inhibition of SMAD7 mRNA” value is on record as 11%. In addition, under setting [2], the “% inhibition of SMAD7 mRNA expression” value came out at 0%.
As for “771873 (antisense eA*eG*e[5mC]*eT*eG*d[5mC]*dT*dG*dT*d[5mC]*dA*d[5mC]*dA*dA*dG*eG*e[5mC]*e[5mC]*e[5mC]*eT) [compound 771873]”, under setting [2], the “% inhibition of SMAD7 mRNA expression” value came to 31%.
Same read-out and setting: the figure for “771874 (antisense eA*eT*eT*eA*e[5mC]*dT*dT*d[5mC]*dT*dG*dT*d[5mC]*dT*dG*d[5mC]*e[5mC]*eT*e[5mC]*e[5mC]*eG) [compound 771874]” is 34%.
For the substance “771875 (antisense e[5mC]*e[5mC]*e[5mC]*e[5mC]*eG*dT*dG*d[5mC]*dA*d[5mC]*dT*d[5mC]*d[5mC]*d[5mC]*dA*eG*e[5mC]*e[5mC]*e[5mC]*eT) [compound 771875]”, the “% Inhibition” value under setting [1] turned out to be 51%. Moreover, the “% inhibition of SMAD7 mRNA expression” value under setting [3] came to 42%.
On to “771876 (antisense e[5mC]*eG*eA*eG*e[5mC]*dT*d[5mC]*d[5mC]*d[5mC]*dT*d[5mC]*d[5mC]*d[5mC]*dT*dG*eG*e[5mC]*e[5mC]*e[5mC]*e[5mC]) [compound 771876]”, for which the “% Inhibition” value under setting [1] was determined as 0%.
In the case of “771877 (antisense eT*eG*e[5mC]*eA*eG*dG*dA*dT*d[5mC]*d[5mC]*dG*dA*dT*dG*dG*eA*eA*eA*eA*eG) [compound 771877]”, under setting [4], the “% inhibition of SMAD7 mRNA expression” value is on record as 24%.
For the substance “771878 (antisense e[5mC]*eA*eG*eT*eT*dT*d[5mC]*dT*dA*dG*dA*dG*dG*dG*dT*eA*eG*eG*eA*eA) [compound 771878]”, under setting [1], the “% Inhibition” value is recorded as 22%.
Same read-out and setting: to “771879 (antisense eA*eG*eG*eA*e[5mC]*d[5mC]*d[5mC]*dA*dA*dA*dG*dG*d[5mC]*dA*dG*eA*e[5mC]*e[5mC]*e[5mC]*eT) [compound 771879]” belongs 23%.
“771880 (antisense eT*e[5mC]*e[5mC]*e[5mC]*eT*dG*dG*dT*dT*dT*dT*dG*d[5mC]*dA*dG*eG*eT*eG*eG*eT) [compound 771880]”: the “% Inhibition of SMAD7 mRNA” value under setting [1] was found to be 41%. Further, the “% inhibition of SMAD7 mRNA expression” value under setting [2] is 29%.
In the case of “771881 (antisense eA*eT*eT*eT*eT*d[5mC]*d[5mC]*dA*dA*dA*dA*dG*dG*dA*d[5mC]*eA*eA*eA*eA*e[5mC]) [compound 771881]”, under setting [2], the “% inhibition of SMAD7 mRNA expression” value is 0%.
Still for that read-out and setting: the figure for “771882 (antisense eG*e[5mC]*eA*eT*e[5mC]*dA*dT*dG*dA*dA*dA*dA*dT*d[5mC]*dT*eT*eA*eA*eT*eA) [compound 771882]” is 35%.
Consider “771883 (antisense eA*eG*e[5mC]*eT*eG*dG*d[5mC]*dA*d[5mC]*dT*dG*dA*dA*dT*dG*e[5mC]*eT*eG*eA*eT) [compound 771883]”, for which the “% Inhibition” value under setting [1] was found to be 26%. The “% inhibition of SMAD7 mRNA expression” value under setting [3] is on record as 0%.
Take “771884 (antisense e[5mC]*eT*eG*e[5mC]*e[5mC]*dA*d[5mC]*d[5mC]*d[5mC]*dT*dG*dA*dG*dA*dG*eT*eG*eT*eA*eG) [compound 771884]”: the “% Inhibition” value under setting [1] is 3%.
The same measure, in the same setting: the figure for “771886 (antisense eA*eA*e[5mC]*e[5mC]*eA*dG*dG*dT*dT*d[5mC]*d[5mC]*d[5mC]*dA*d[5mC]*dT*eG*eT*eT*eA*e[5mC]) [compound 771886]” is 0%; for “771887 (antisense e[5mC]*eA*eG*e[5mC]*e[5mC]*dA*d[5mC]*dT*dG*d[5mC]*dT*dG*dT*d[5mC]*dT*eG*eA*eG*eG*eA) [compound 771887]” it is 14%.
Consider “771888 (antisense eT*e[5mC]*eG*e[5mC]*e[5mC]*dA*dT*dG*dG*dA*dG*dA*dA*dT*dG*eT*eA*eA*eT*eT) [compound 771888]”, for which the “% Inhibition of SMAD7 mRNA” value under setting [1] is reported as 21%. Also, under setting [2], the “% inhibition of SMAD7 mRNA expression” value turned out to be 0%.
“771889 (antisense eT*eA*eA*eG*eA*dG*d[5mC]*dA*dT*dT*dT*dA*dT*d[5mC]*dT*e[5mC]*eG*e[5mC]*e[5mC]*eA) [compound 771889]”: the “% inhibition of SMAD7 mRNA expression” value under setting [2] stood at 29%.
The same measure, in the same setting: the figure for “771890 (antisense eA*eG*eT*e[5mC]*eT*dG*dA*dA*dG*d[5mC]*d[5mC]*d[5mC]*d[5mC]*d[5mC]*dA*eA*e[5mC]*e[5mC]*eT*eG) [compound 771890]” is 14%.
As for “771892 (antisense e[5mC]*eT*eG*eA*eA*dG*dT*dT*dT*d[5mC]*dT*d[5mC]*d[5mC]*dT*d[5mC]*e[5mC]*e[5mC]*eA*eT*e[5mC]) [compound 771892]”, under setting [1], the “% Inhibition” value stood at 2%.
As to “771893 (antisense eG*eT*e[5mC]*eA*eT*d[5mC]*d[5mC]*dG*dT*d[5mC]*d[5mC]*dA*d[5mC]*dT*dG*eT*e[5mC]*eT*eG*e[5mC]) [compound 771893]”, the “% inhibition of SMAD7 mRNA expression” value under setting [4] is given as 35%.
Consider “771894 (antisense e[5mC]*eA*eA*eA*eA*dG*dG*dG*dA*dA*dA*dG*dG*dA*dG*eG*eT*eT*eT*eG) [compound 771894]”, for which the “% Inhibition” value under setting [1] is given as 17%.
Still for that read-out and setting: the figure for “771895 (antisense eA*eT*eT*eT*eG*d[5mC]*dA*dA*d[5mC]*dA*dA*dT*dA*dA*dA*eA*e[5mC]*eA*eA*eA) [compound 771895]” is 0%.
Turning to “771896 (antisense eG*eG*eG*e[5mC]*e[5mC]*d[5mC]*d[5mC]*d[5mC]*dT*dT*d[5mC]*dT*dG*d[5mC]*d[5mC]*eT*eT*e[5mC]*eA*eT) [compound 771896]”, the “% Inhibition of SMAD7 mRNA” value under setting [1] worked out at 17%. In addition, the “% inhibition of SMAD7 mRNA expression” value under setting [2] is listed as 0%.
In the case of “771897 (antisense e[5mC]*eT*e[5mC]*eT*e[5mC]*dA*dG*dG*dG*dT*d[5mC]*dT*d[5mC]*dA*dG*eT*eT*eT*eG*eA) [compound 771897]”, under setting [2], the “% inhibition of SMAD7 mRNA expression” value is given as 44%.
Same read-out and setting: to “771898 (antisense eG*eG*eT*eG*eT*dG*dA*dG*d[5mC]*dT*dG*dT*dG*dG*dA*e[5mC]*eA*e[5mC]*eA*eG) [compound 771898]” belongs 27%.
Consider “771899 (antisense e[5mC]*e[5mC]*eT*eG*eA*dT*dT*dG*dT*d[5mC]*dT*d[5mC]*d[5mC]*dA*d[5mC]*eA*eT*e[5mC]*e[5mC]*e[5mC]) [compound 771899]”, for which, under setting [1], the “% Inhibition” value worked out at 47%. For the same substance, the “% inhibition of SMAD7 mRNA expression” value under setting [3] is listed as 57%.
“771901 (antisense eA*eA*eA*eA*eT*dG*d[5mC]*d[5mC]*d[5mC]*dA*d[5mC]*d[5mC]*dA*dG*dT*e[5mC]*eT*eT*e[5mC]*e[5mC]) [compound 771901]”: under setting [4], the “% inhibition of SMAD7 mRNA expression” value stood at 41%.
As for “771903 (antisense eT*eG*e[5mC]*e[5mC]*eA*dA*d[5mC]*d[5mC]*d[5mC]*d[5mC]*dA*dG*dA*dG*dG*eT*eG*eA*eG*e[5mC]) [compound 771903]”, the “% Inhibition” value under setting [1] was 20%.
For “771904 (antisense e[5mC]*e[5mC]*e[5mC]*eA*eA*d[5mC]*d[5mC]*d[5mC]*dA*dT*d[5mC]*dT*d[5mC]*d[5mC]*dA*e[5mC]*e[5mC]*eA*e[5mC]*e[5mC]) [compound 771904]”, the “% Inhibition of SMAD7 mRNA” value under setting [1] is 0%. For the same substance, the “% inhibition of SMAD7 mRNA expression” value under setting [2] is on record as 0%.
On to “771905 (antisense eT*eA*eG*eG*e[5mC]*dG*dA*dA*dT*d[5mC]*d[5mC]*d[5mC]*dT*d[5mC]*d[5mC]*e[5mC]*e[5mC]*e[5mC]*eA*eA) [compound 771905]”, for which the “% inhibition of SMAD7 mRNA expression” value under setting [2] worked out at 0%.
Same read-out and setting: the figure for “771906 (antisense eA*e[5mC]*e[5mC]*e[5mC]*eT*dT*dG*d[5mC]*dT*dG*dG*dT*d[5mC]*dT*d[5mC]*eT*eT*eG*eT*eT) [compound 771906]” is 0%.
As for “771908 (antisense e[5mC]*eA*eA*eA*e[5mC]*dA*dT*d[5mC]*dA*d[5mC]*d[5mC]*dA*d[5mC]*dG*d[5mC]*e[5mC]*eT*e[5mC]*eG*e[5mC]) [compound 771908]”, the “% Inhibition” value under setting [1] came to 26%.
Take “771909 (antisense e[5mC]*eA*eG*eG*e[5mC]*dT*d[5mC]*d[5mC]*d[5mC]*dT*dG*dT*dG*d[5mC]*d[5mC]*eA*eA*eT*e[5mC]*eA) [compound 771909]”: the “% inhibition of SMAD7 mRNA expression” value under setting [4] was found to be 52%.
In the case of “771910 (antisense eA*eG*eG*e[5mC]*eA*d[5mC]*dG*dG*d[5mC]*d[5mC]*dG*d[5mC]*d[5mC]*dT*d[5mC]*e[5mC]*eT*eG*e[5mC]*eA) [compound 771910]”, the “% Inhibition” value under setting [1] amounted to 4%.
Consider “771911 (antisense eA*eT*eG*eG*eT*d[5mC]*d[5mC]*dA*dG*d[5mC]*dA*dG*dA*dG*d[5mC]*eA*eG*eA*eA*eG) [compound 771911]”, for which, under setting [1], the “% Inhibition” value is given as 20%.
Take “771912 (antisense eA*eT*eA*eT*eT*d[5mC]*d[5mC]*dT*d[5mC]*dT*dG*d[5mC]*d[5mC]*dA*dA*eA*eG*eT*e[5mC]*e[5mC]) [compound 771912]”: under setting [1], the “% Inhibition of SMAD7 mRNA” value came out at 44%. Also, the “% inhibition of SMAD7 mRNA expression” value under setting [2] worked out at 19%.
